Measurements reported in US20120214862A1, “MODULATION OF FACTOR 7 EXPRESSION” (ISIS Pharmaceuticals, Inc., priority 2009, published 2012).
In the oligonucleotide strings, read from the 5' end, every base follows the letter of its sugar. An asterisk marks phosphorothioate; unmarked linkages are phosphodiester. Other units and linkages are bracketed, terminal groups are in braces. A string of capitals states the bases alone. e = 2'-O-(2-methoxyethyl) (MOE); [5mC] = 5-methylcytosine; d = 2'-deoxy (DNA)

The substances below were run on human Factor 7 mRNA (assay: Antisense inhibition of human Factor 7 mRNA in HepB3 cells, lipofectin, 50 nM, real-time RT-PCR). Conditions: HepB3 cells; gapmers (5-10-5, 3-14-3, 2-13-5 MOE) targeted to nucleobases 4868 to 4899 of SEQ ID NO: 1.
Type: cell-based
Procedure, shortened: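 Cells plated at 4,000 per well were transfected and harvested after approximately 24 hours of treatment. Transcript levels, measured with primer probe set RTS 2927, were normalised to total RNA by RIBOGREEN®. Values are percent inhibition relative to untreated control cells.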

Row | Substance | % Inhibition of human Factor 7 mRNA levels [%]
1 | 422216 (antisense eA*eG*eT*dT*d[5mC]*dT*dG*d[5mC]*dA*dG*dG*dA*dG*d[5mC]*dG*dG*d[5mC]*e[5mC]*eT*eA) [compound 422216] | 68
2 | 422218 (antisense e[5mC]*eG*eA*dG*dT*dT*d[5mC]*dT*dG*d[5mC]*dA*dG*dG*dA*dG*d[5mC]*dG*eG*e[5mC]*e[5mC]) [compound 422218] | 70
3 | 422219 (antisense e[5mC]*e[5mC]*eG*dA*dG*dT*dT*d[5mC]*dT*dG*d[5mC]*dA*dG*dG*dA*dG*d[5mC]*eG*eG*e[5mC]) [compound 422219] | 65
4 | 422220 (antisense e[5mC]*e[5mC]*e[5mC]*dG*dA*dG*dT*dT*d[5mC]*dT*dG*d[5mC]*dA*dG*dG*dA*dG*e[5mC]*eG*eG) [compound 422220] | 59
5 | 422221 (antisense eG*e[5mC]*e[5mC]*d[5mC]*dG*dA*dG*dT*dT*d[5mC]*dT*dG*d[5mC]*dA*dG*dG*dA*eG*e[5mC]*eG) [compound 422221] | 59
6 | 422222 (antisense eA*eG*e[5mC]*d[5mC]*d[5mC]*dG*dA*dG*dT*dT*d[5mC]*dT*dG*d[5mC]*dA*dG*dG*eA*eG*e[5mC]) [compound 422222] | 55
7 | 422223 (antisense eG*eA*eG*d[5mC]*d[5mC]*d[5mC]*dG*dA*dG*dT*dT*d[5mC]*dT*dG*d[5mC]*dA*dG*eG*eA*eG) [compound 422223] | 48
8 | 422224 (antisense eG*eG*eA*dG*d[5mC]*d[5mC]*d[5mC]*dG*dA*dG*dT*dT*d[5mC]*dT*dG*d[5mC]*dA*eG*eG*eA) [compound 422224] | 62
9 | 422225 (antisense eA*eG*eG*dA*dG*d[5mC]*d[5mC]*d[5mC]*dG*dA*dG*dT*dT*d[5mC]*dT*dG*d[5mC]*eA*eG*eG) [compound 422225] | 56

Same assay, conditions: HepB3 cells; gapmers targeted to nucleobases 11830 to 11869 of SEQ ID NO: 1 (Table 9)

Row | Substance | % Inhibition of human Factor 7 mRNA levels [%]
10 | 422231 (antisense eT*e[5mC]*dA*dG*dG*dG*d[5mC]*dT*dG*dG*dT*dT*dT*dT*dG*eG*eA*eG*eG*eA) [compound 422231] | 22
11 | 422232 (antisense eG*eT*d[5mC]*dA*dG*dG*dG*d[5mC]*dT*dG*dG*dT*dT*dT*dT*eG*eG*eA*eG*eG) [compound 422232] | 41
12 | 422233 (antisense eG*eG*dT*d[5mC]*dA*dG*dG*dG*d[5mC]*dT*dG*dG*dT*dT*dT*eT*eG*eG*eA*eG) [compound 422233] | 46
13 | 422234 (antisense eT*eG*dG*dT*d[5mC]*dA*dG*dG*dG*d[5mC]*dT*dG*dG*dT*dT*eT*eT*eG*eG*eA) [compound 422234] | 62
14 | 422235 (antisense eA*eT*dG*dG*dT*d[5mC]*dA*dG*dG*dG*d[5mC]*dT*dG*dG*dT*eT*eT*eT*eG*eG) [compound 422235] | 50
15 | 422236 (antisense eA*eA*dT*dG*dG*dT*d[5mC]*dA*dG*dG*dG*d[5mC]*dT*dG*dG*eT*eT*eT*eT*eG) [compound 422236] | 44
16 | 422237 (antisense e[5mC]*eA*dA*dT*dG*dG*dT*d[5mC]*dA*dG*dG*dG*d[5mC]*dT*dG*eG*eT*eT*eT*eT) [compound 422237] | 50

Same assay, conditions: HepB3 cells; gapmers targeted to nucleobases 15188 to 15211 of SEQ ID NO: 1 (Table 13)

Row | Substance | % Inhibition of human Factor 7 mRNA levels [%]
17 | 422226 (antisense e[5mC]*eA*dT*dG*dG*dT*dG*dA*dT*dG*d[5mC]*dT*dT*d[5mC]*dT*eG*eA*eA*eT*eT) [compound 422226] | 41
18 | 422227 (antisense eG*e[5mC]*dA*dT*dG*dG*dT*dG*dA*dT*dG*d[5mC]*dT*dT*d[5mC]*eT*eG*eA*eA*eT) [compound 422227] | 67
19 | 422230 (antisense e[5mC]*eA*dT*dG*d[5mC]*dA*dT*dG*dG*dT*dG*dA*dT*dG*d[5mC]*eT*eT*e[5mC]*eT*eG) [compound 422230] | 65
